From patent US9113629B2, “4-amino-6-(4-substituted-phenyl)-picolinates and 6-amino-2-(4-substituted-phenyl)-pyrimidine-4-carboxylates and their use as herbicides” (DOW AGROSCIENCES LLC, priority 2013, dated 2015)
Read-outs that look alike come from different tables or passages of the source.

Key:
[1] = system: Key Broadleaf Weed and Crop Species; test: Post-emergent Test II herbicidal activity (Table 5); format: in vivo; settings: post-emergence, 336 h, post-emergent, 14 days after application; for pest or weed control at 70 g/ha: 70 g ai/ha; for pest or weed control at 140 g/ha: 140 g ai/ha
Procedure, shortened: (§1)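 Injury was rated visually 14 d after treatment on a 0–100% scale against untreated controls. Test compounds, formulated with crop oil concentrate and surfactant and serially diluted down to 1/16× of the top rate, were applied by track sprayer at 187 L/ha onto first- to second-true-leaf seedlings.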

[2] = system: Key Grass and Sedge Weeds as well as Grass Crops; test: Post-emergent Test II herbicidal activity (Table 6); format: in vivo; settings: post-emergence, 336 h; for pest or weed control at 70 g/ha: application rate 70 g ai/ha; for pest or weed control at 140 g/ha: application rate 140 g ai/ha
Procedure, shortened: as §1

[3] = ABUTH: velvetleaf (Abutilon theophrasti), read-out: Visual Growth Reduction (%) 14 Days After Application ABUTH
[4] = AMARE: redroot pigweed (Amaranthus retroflexus), read-out: Visual Growth Reduction (%) 14 Days After Application AMARE
[5] = BRSNN: oilseed-rape, canola (Brassica napus), read-out: Visual Growth Reduction (%) 14 Days After Application BRSNN
[6] = CHEAL: lambsquarters (Chenopodium album), read-out: Visual Growth Reduction (%) 14 Days After Application CHEAL
[7] = EPHHL: wild poinsettia (Euphorbia heterophylla), read-out: Visual Growth Reduction (%) 14 Days After Application EPHHL
[8] = HELAN: sunflower (Helianthus annuus), read-out: Visual Growth Reduction (%) 14 Days After Application HELAN
[9] = VIOTR: wild pansy (Viola tricolor), read-out: Visual Growth Reduction (%) 14 Days After Application VIOTR
[10] = CYPES: yellow nutsedge (Cyperus esculentus), read-out: Visual Growth Reduction (%) 14 Days After Application, CYPES
[11] = DIGSA: crabgrass (Digitaria sanguinalis), read-out: Visual Growth Reduction (%) 14 Days After Application, DIGSA
[12] = ECHCG: barnyardgrass (Echinochloa crus-galli), read-out: Visual Growth Reduction (%) 14 Days After Application, ECHCG
[13] = ORYSA: rice (Oryza sativa), read-out: Visual Growth Reduction (%) 14 Days After Application, ORYSA
[14] = SETFA: giant foxtail (Setaria faberi), read-out: Visual Growth Reduction (%) 14 Days After Application, SETFA
[15] = SORVU: grain sorghum (Sorghum vulgare), read-out: Visual Growth Reduction (%) 14 Days After Application, SORVU
[16] = TRZSS (wheat, Triticum aestivum), read-out: Visual Growth Reduction (%) 14 Days After Application, TRZSS
[17] = ZEAMX: maize, corn (Zea mays), read-out: Visual Growth Reduction (%) 14 Days After Application, ZEAMX

COC(=O)c1nc(-c2cc(F)c(C#N)cc2F)cc(N)c1Cl [Compound 202] gave a pest or weed control at 70 g/ha [1, 3] of 95 to 100%, a pest or weed control at 140 g/ha [1, 3] of 95 to 100% and a pest or weed control at 70 g/ha [1, 4] of 95 to 100%. The pest or weed control at 140 g/ha [1, 4] was 95 to 100%, the pest or weed control at 70 g/ha [1, 5] was 75 to 84% and the pest or weed control at 140 g/ha [1, 5] was 85 to 94%. For the same molecule, the pest or weed control at 70 g/ha [1, 6] was 95 to 100%, the pest or weed control at 140 g/ha [1, 6] was 95 to 100% and the pest or weed control at 70 g/ha [1, 7] was 95 to 100%. For the same molecule, the pest or weed control at 140 g/ha [1, 7] was 95 to 100%, the pest or weed control at 70 g/ha [1, 8] was 95 to 100% and the pest or weed control at 140 g/ha [1, 8] was 95 to 100%. For the same molecule, the pest or weed control at 70 g/ha [1, 9] was 60 to 74%, the pest or weed control at 140 g/ha [1, 9] was 60 to 74% and the melting point was 209.7 to 211.9 °C. The pest or weed control at 70 g/ha [2, 10] was 85 to 94%, the pest or weed control at 140 g/ha [2, 10] was 85 to 94% and the pest or weed control at 70 g/ha [2, 11] was 30 to 44%. The pest or weed control at 140 g/ha [2, 11] was 60 to 74%, the pest or weed control at 70 g/ha [2, 12] was 60 to 74% and the pest or weed control at 140 g/ha [2, 12] was 95 to 100%. The pest or weed control at 70 g/ha [2, 13] was 0 to 29%, the pest or weed control at 140 g/ha [2, 13] was 0 to 29% and the pest or weed control at 70 g/ha [2, 14] was 60 to 74%. The pest or weed control at 140 g/ha [2, 14] was 60 to 74%, the pest or weed control at 70 g/ha [2, 15] was 60 to 74% and the pest or weed control at 140 g/ha [2, 15] was 85 to 94%. It also gave a pest or weed control at 70 g/ha [2, 16] of 60 to 74%, a pest or weed control at 140 g/ha [2, 16] of 75 to 84% and a pest or weed control at 70 g/ha [2, 17] of 30 to 44%. For the same molecule, the pest or weed control at 140 g/ha [2, 17] was 45 to 59%.
